Among the data in patent US10435402B2, “Bicyclic compounds, compositions and medicinal applications thereof” (Advinus Therapeutics Limited, priority 2015, dated 2019) are IC50 values, retold here.

pIC50: −log10 of the molar value.

T1 sequence (P51449 269-508 limits assumed): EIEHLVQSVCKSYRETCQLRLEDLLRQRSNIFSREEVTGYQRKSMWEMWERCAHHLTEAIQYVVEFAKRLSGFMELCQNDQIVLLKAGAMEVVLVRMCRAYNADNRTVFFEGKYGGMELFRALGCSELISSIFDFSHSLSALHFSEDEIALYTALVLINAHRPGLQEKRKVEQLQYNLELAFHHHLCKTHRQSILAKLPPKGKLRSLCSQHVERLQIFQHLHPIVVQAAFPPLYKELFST
T1 sequence (P04386 1-147 partner limits assumed): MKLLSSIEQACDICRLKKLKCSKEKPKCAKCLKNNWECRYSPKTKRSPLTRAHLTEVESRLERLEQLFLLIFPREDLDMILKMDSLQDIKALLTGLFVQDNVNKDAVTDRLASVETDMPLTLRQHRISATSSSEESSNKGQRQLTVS

The experiment has as its target T1, GAL4-DBD/RORγ-LBD (Homo sapiens, UniProt P51449).
T1 construct: expressed in transfected cells; host or cells: HEK293T
The experiment can be described thus: RORγt transactivation reporter assay (GAL4-DBD/RORγ-LBD, luciferase read out). In kind it is cell-based. The conditions noted are these: HEK293T cells, GAL4-UAS luciferase reporter, overnight (18-24 hours) incubation. On the procedure:
RORγt Transactivation Reporter Assay Protocol: The inhibition of RORγt activity in cells was evaluated using a GAL4-UAS reporter system in HEK293T cells employing a luciferase read out. RORγt ligand binding domain (LBD) was cloned into the pFN26A (BIND) vector (Promega #[…]) containing yeast GAL4-DBD to form a RORγt LBD-GAL4 DBD fusion construct. This vector also contained a Renilla Luciferase reporter expressed under a SV40 promoter which was used as a control for transfection efficiency. A transcriptional reporter expression construct pGL4.35 (Promega #[…]) was used to monitor RORγt LBD-GAL4 activity. This construct contained nine repeats of GAL4 binding site/upstream activating sequence (UAS) controlling expression of a firefly luciferase reporter Luc2P. When transfected together in cells, the RORγ-LBD-DBD fusion protein drives expression of the luciferase reporter. For the assay, HEK293T cells were plated in a flat bottom 96 well plate at a density of 25,000 cells/well/100 ul of DMEM high glucose medium (Sigma D5648) containing 10% FBS and antibiotic. Cells were incubated overnight at 37 C/5% CO2. The next day, medium from the wells was removed and replaced with 30 ul of OptiMEM® (Invitrogen #31985070). 100 ng each of pBIND RORγ LBD-DBD and pGL4.35 reporter plasmids was transfected in HEK293T cells using Lipofectamine 2000 (Invitrogen #11668-019) where 10 ul of transfection complex was added to the each well. Control transfections were performed with an empty pF[…] vector and pGL4.35 vector. The transfected cells were incubated for 5 hours at 37 C/5% CO2. After incubation, 40 ul of DMEM high glucose medium without FBS, with antibiotic was added to each well. A 10 mM stock solution of test compound prepared in 100% DMSO was first diluted in DMSO and then in DMEM medium without FBS to give the required final compound concentration. Concentration of DMSO in the test compound solution was 0.4%. 20 ul of diluted compound solution was added to each well. Cells were incubated overnight (18-24 hours) at 37 C/5% CO2. The next day, luciferase assay was performed using the Dual Glo® Luciferase Assay System (Promega #E2940). Briefly, medium was removed from the wells and replaced with 40 ul 1× Passive Lysis Buffer (Promega #E1941). Plate was incubated at room temperature on a plate shaker at 1000 rpm for 40 min. After incubation, plate was centrifuged at 1000 rpm for 2 min. 20 ul of the lysate was transferred from each well to that of solid white half area 96 well plate (Costar #3693). Dual Glo® Reagent was thawed to room temperature and 20 ul was added to each well containing lysate. Plate was centrifuged at 1000 rpm/2 min and incubated at room temperature on a plate shaker at 600 rpm/25 min. Firefly luciferase signal was measured on a Tecan Safire2. After measurement, 20 ul of Dual Glo® Stop Glo® Reagent was added to each well. Plate was centrifuged at 1000 rpm/2 min and incubated at room temperature on a plate shaker at 600 rpm/25 min. Renilla luciferase signal was measured on Tecan Safire 2. IC50 values for test compounds were calculated from the normalized luciferase signal data using GraphPad Prism software.
A general note: Reporter assays use an easily measured gene product as a stand-in for the process of interest.
For the molecule `O=C(c1c(Cl)cccc1C(F)(F)F)c1cc(C2=CCC(C(=O)O)CC2)c2ccccn12` (stereo not drawn) [Example A-65, 4-[3-[2-chloro-6-(trifluoromethyl)benzoyl]indolizin-1-yl]cyclohex-3-ene-1-carboxylic acid], the negative logarithm of the IC50 (pIC50) is > 6.30. `O=C(O)c1ccc(-c2cc(C(=O)c3c(F)cccc3Cl)n3cccc(F)c23)cc1` [Example A-34, 4-[3-(2-chloro-6-fluoro-benzoyl)-8-fluoro-indolizin-1-yl]benzoic acid]: the pIC50 is > 6.30. To “ethyl 4-[3-(2-chloro-6-fluoro-benzoyl)indolizin-1-yl]-3-fluoro-benzoate [Example A-25]” belongs > 6.30. In the case of `Cc1c(-c2ccc(C(=O)O)cc2)c2ccccn2c1C(=O)c1c(Cl)ccnc1Cl` [Example C-5, 4-[3-(2,4-dichloropyridine-3-carbonyl)-2-methyl-indolizin-1-yl]benzoic acid], the pIC50 is > 6.30. As for `O=C(O)c1ccc(-c2cc(C(=O)c3c(F)ccc(F)c3F)n3ccccc23)cc1` [Example A-42, 4-[3-(2,3,6-trifluorobenzoyl)indolizin-1-yl]benzoic acid], the pIC50 is > 6.30. To `Cc1c(-c2ccc(C(=O)O)cc2)c2ccccn2c1C(=O)c1c(Cl)cccc1C(F)(F)F` [Example C-7, 4-[3-[2-chloro-6-(trifluoromethyl)benzoyl]-2-methyl-indolizin-1-yl]benzoic acid] belongs > 6.30; to `O=C(O)c1ccc(-c2cc(C(=O)c3c(Cl)ccc(F)c3Cl)n3ccccc23)cc1` [Example A-19, 4-[3-(2,6-dichloro-3-fluoro-benzoyl)indolizin-1-yl]benzoic acid], > 6.30; to `CCS(=O)(=O)N1CC=C(c2cc(C(=O)c3c(Cl)cccc3Cl)n3ccccc23)CC1` [Example G-1, (2,6-dichlorophenyl)-[1-(1-ethylsulfonyl-3,6-dihydro-2H-pyridin-4-yl)indolizin-3-yl]methanone], < 5.30.

Turning to `Cc1cccc(Cl)c1C(=O)c1cc(-c2ccc(C(=O)O)cc2)c2ccccn12` [Example A-16, 4-[3-(2-chloro-6-methyl-benzoyl)indolizin-1-yl]benzoic acid], the negative logarithm of the IC50 (pIC50) is > 6.30. As to `O=C(O)c1cccc(-c2cc(C(=O)c3c(Cl)cccc3C(F)(F)F)n3ccccc23)c1` [Example A-57, 3-[3-[2-chloro-6-(trifluoromethyl)benzoyl]indolizin-1-yl]benzoic acid], the pIC50 was < 5.30. In the case of `O=C(O)c1ccc(-c2cc(C(=O)c3c(Cl)cccc3Cl)n3cc(C(=O)N4CCCCC4)ccc23)cc1` [Example D-4, 4-[3-(2,6-dichlorobenzoyl)-6-(piperidine-1-carbonyl)indolizin-1-yl]benzoic acid] it was > 6.00; in that of “4-[3-(2,6-difluorobenzoyl)indolizin-1-yl]benzoic acid [Example A-37]”, > 6.30; in that of `CCOC(=O)c1ccc(-c2cc(C(=O)c3c(Cl)cccc3Cl)n3cc(C(F)(F)F)ccc23)cc1` [Example A-64, ethyl 4-[3-(2,6-dichlorobenzoyl)-6-(trifluoromethyl)indolizin-1-yl]benzoate], > 6.30. To `CCOC(=O)c1ccc(-c2cc(C(=O)c3c(Cl)cccc3Cl)n3ccccc23)cc1` [Example A-6, ethyl 4-[3-(2,6-dichlorobenzoyl)indolizin-1-yl]benzoate] belongs > 6.30; to `O=C(O)c1ccc(-c2cc(C(=O)c3c(F)cccc3Cl)n3cccc(F)c23)c(F)c1` [Example A-35, 4-[3-(2-chloro-6-fluoro-benzoyl)-8-fluoro-indolizin-1-yl]-3-fluoro-benzoic acid], > 6.30; to `O=C(O)c1ccc(-c2cc(C(=O)c3c(Cl)cccc3C(F)(F)F)n3cccc(Cl)c23)cc1` [Example A-58, 4-[8-chloro-3-[2-chloro-6-(trifluoromethyl)benzoyl]indolizin-1-yl]benzoic acid], > 6.30.

As for `CCOC(=O)c1ccc(-c2cc(C(=O)c3c(Cl)cccc3C3CC3)n3ccccc23)cc1` [Example A-31, ethyl 4-[3-(2-chloro-6-cyclopropyl-benzoyl)indolizin-1-yl]benzoate], the negative-log IC50 (pIC50) was > 6.30. For the molecule `O=C(O)c1ccc(-c2cc(C(=O)c3c(Cl)cccc3Cl)n3cc(F)ccc23)cc1` [Example A-26, 4-[3-(2,6-dichlorobenzoyl)-6-fluoro-indolizin-1-yl]benzoic acid], the pIC50 is > 6.30.

For `O=C(O)c1ccc(-c2cc(C(=O)c3c(F)cccc3F)n3cccc(F)c23)cc1` [Example A-47, 4-[3-(2,6-difluorobenzoyl)-8-fluoro-indolizin-1-yl]benzoic acid], the negative logarithm of the IC50 (pIC50) is > 6.30.

For the molecule `O=C(O)c1ccc(-c2cc(C(=O)c3c(Cl)cccc3Cl)n3cccc(C(F)(F)F)c23)cc1` [Example A-61, 4-[3-(2,6-dichlorobenzoyl)-8-(trifluoromethyl)indolizin-1-yl]benzoic acid], the negative-log IC50 (pIC50) is > 6.30. Consider `CN(C)C(=O)c1ccc2c(-c3ccc(C(=O)O)cc3)cc(C(=O)c3c(Cl)cccc3C(F)(F)F)n2c1` [Example D-1, 4-[3-[2-chloro-6-(trifluoromethyl)benzoyl]-6-(dimethylcarbamoyl)indolizin-1-yl]benzoic acid], for which the pIC50 is > 6.30. In the case of “4-[3-(2,6-dichloro-3-fluoro-benzoyl)-5,6,7,8-tetrahydroindolizin-1-yl]benzoic acid [Example H-3]” it was < 5.30; in that of “(2,6-dichlorophenyl)-[1-(4-methylsulfonylphenyl)indolizin-3-yl]methanone [Example A-20]”, < 5.30.

In the case of `O=C(O)c1ccc(-c2cc(C(=O)c3c(F)ccc(F)c3F)n3ccccc23)c(F)c1` [Example A-44, 3-fluoro-4-[3-(2,3,6-trifluorobenzoyl)indolizin-1-yl]benzoic acid], the negative logarithm of the IC50 (pIC50) is > 6.30. On to `O=C(O)c1ccc(-c2cc(C(=O)c3c(Cl)cccc3Br)n3ccccc23)c(F)c1` [Example A-52, 4-[3-(2-bromo-6-chloro-benzoyl)indolizin-1-yl]-3-fluoro-benzoic acid], for which the pIC50 was > 6.00. In the case of `O=C(O)c1cc(F)c(-c2cc(C(=O)c3c(Cl)cccc3Cl)n3ccccc23)c(F)c1` [Example A-9, 4-[3-(2,6-dichlorobenzoyl)indolizin-1-yl]-3,5-difluoro-benzoic acid] it was > 6.30; in that of `CCOC(=O)c1ccc(-c2cc(C(=O)c3c(Cl)cccc3Cl)n3cccc(C(F)(F)F)c23)cc1` [Example A-62, ethyl 4-[3-(2,6-dichlorobenzoyl)-8-(trifluoromethyl)indolizin-1-yl]benzoate], > 6.30; in that of “4-[6-carbamoyl-3-(2,6-dichlorobenzoyl)indolizin-1-yl]benzoic acid [Example D-13]”, > 5.30. As for `CCOC(=O)c1ccc(-c2cc(C(=O)c3c(F)ccc(F)c3F)n3ccccc23)c(F)c1` [Example A-41, ethyl 3-fluoro-4-[3-(2,3,6-trifluorobenzoyl)indolizin-1-yl]benzoate], the pIC50 was > 6.30. Consider `CCOC(=O)c1ccc(-c2cc(C(=O)c3c(F)cccc3F)n3ccccc23)c(F)c1` [Example A-38, ethyl 4-[3-(2,6-difluorobenzoyl)indolizin-1-yl]-3-fluoro-benzoate], for which the pIC50 is > 6.30. With `O=C(O)c1ccc(-c2cc(C(=O)c3c(Cl)cccc3Cl)n3ccccc23)cn1` [Example A-10, 5-[3-(2,6-dichlorobenzoyl)indolizin-1-yl]pyridine-2-carboxylic acid], the negative logarithm of the IC50 (pIC50) is < 5.30. As for `O=C(O)c1ccc(-c2nc(C(=O)c3c(Cl)ccc(F)c3Cl)n3ccccc23)cc1` [Example I-1, Sodium 4-[3-(2,6-dichloro-3-fluoro-benzoyl)imidazo[1,5-a]pyridin-1-yl]benzoate], the negative logarithm of the IC50 (pIC50) was > 6.30. As for “4-[3-(2,6-dichlorophenoxy)indolizin-1-yl]benzoic acid [Example E-3]”, the pIC50 is < 5.30.

A word on the pIC50: it is −log10 of the IC50, conventionally taken in molar units. Read a high pIC50 as a low IC50.
